Source: US7968595B2, “Substituted 4-aryl-chromene as activator of caspases and inducer of apoptosis and as antivascular agent and the use thereof” (Cytovia, Inc., priority 2006, dated 2011)

Columns and labels:
MDAMB435 = assay: Inhibition of cell proliferation (GI50), MDAMB435; format: cell-based; conditions: Homo sapiens, MDA-MB-435; MDAMB435 cells, 72 h, CellTiter-Glo
Protocol: Human breast cancer cells MX-1 and MDAMB435, hepatocarcinoma cells SNU398, colon cancer cells HCT116 and HeLa cells were grown and harvested as in Example 7. An aliquot of […] of cells (4.4×10^4 cells/mL) was added to a well of a 96-well microtiter plate containing 5 μL of a 10% DMSO in RPMI-1640 media solution containing 10 nM to 100 μM of R(−)-2,7,8-triamino-4-(3-bromo-4,5-dimethoxy-phenyl)-3-cyano-4H-chromene (1 nM to 10 μM final). An aliquot of 45 μL of cells was added to a well of a 96-well microtiter plate containing 5 μL of a 10% DMSO in RPMI-1640 media solution without compound as the control sample for maximal cell proliferation (LMax). The samples were mixed by agitation and then incubated at 37° C. for 72 h in a 5% CO2−95% humidity incubator. After incubation, the samples were removed from the incubator and 25 μL of CellTiter-Glo™ reagent (Promega) was added. The samples were mixed by agitation and incubated at room temperature for 10-15 min. Plates were then read using a luminescent plate reader (Model SPECTRAfluor Plus, Tecan) to give Ltest values.
Baseline for GI50 (dose for 50% inhibition of cell proliferation) of initial cell numbers was determined by adding an aliquot of 45 μL of cells or 45 μL of media, respectively, to wells of a 96-well microtiter plate containing 5 μL of a 10% DMSO in RPMI-1640 media solution. […]

[1] = test system: MX1 human breast cancer tumors; assay: In vivo antitumor activity in MX-1 model, single agent; parameters: species or system mice
Protocol: (§1) MX1 human breast cancer tumors were obtained from the NCI-FCRDC and maintained as tumors in nude mice. Tumor bits were implanted with a trocar into the right mammary area of female nu/nu mice and allowed to grow to an average size of 200-250 mg, about 12 days after being implanted. Animals were randomized and assigned to study groups of 8-10 animals/group. Body weight were determined and tumor size were measured by calipers and converted to volume by the standard formula of Vol=L×W^2/2. Compound 1R was formulated in 7% PEG400/9% Tween80/84% D5W and administered IV via the tail vein at the indicated days and doses. Day 1 of the study was the first day of treatment. Survival time was the number of days for the tumor to reach 1000 mg or death, whichever occurred earliest. Median survival is the median for the group.

[2] = test system: MX1 human breast cancer tumors; assay: In vivo antitumor activity in MX-1 model, combination with cisplatin and doxorubicin; parameters: species or system mice; conditions: 1R 40 mg/kg, IV
Protocol: as §1
Mice implanted with MX1 human breast cancer tumors were treated with compound 1R as described in EXAMPLE 11. Cisplatin was administered IP whereas doxorubicin was administered IV at the indicated doses.

solid tumor cells = assay: Caspase cascade activation and induction of apoptosis, overall statement; format: cell-based, human; conditions: summary of Table I
Protocol: Human breast cancer cell lines T-47D and ZR-75-1, human colon cancer cell line DLD-1 and human non-small cell lung cancer cell line H1299 were grown according to media component mixtures designated by American Type Culture Collection+10% FCS (Invitrogen Corporation), in a 5% CO2−95% humidity incubator at 37° C. T-47D and ZR-75-1 cells were maintained at a cell density between 30 and 80% confluency at a cell density of 0.1 to 0.6×10^6 cells/mL. Cells were harvested at 600×g and resuspended at 0.65×10^6 cells/mL into appropriate media+10% FCS. An aliquot of […] of cells was added to a well of a 96-well microtiter plate containing 5 μl of a 10% DMSO in RPMI-1640 media solution containing about 0.16 to 10 μM of 2,7,8-triamino-4-(3-bromo-4,5-dimethoxy-phenyl)-3-cyano-4H-chromene (1) or other test compounds (0.016 to 1 μM final). An aliquot of 45 μl of cells was added to a well of a 96-well microtiter plate containing 5 μl of a 10% DMSO in RPMI-1640 media solution without test compound as the control sample. The samples were mixed by agitation and then incubated at 37° C. for 24 h in a 5% CO2−95% humidity incubator. […] Using a fluorescent plate reader (Model 1420 Wallac Instruments), an initial reading (T=0) was made about 1-2 min after addition of the substrate solution, employing excitation at 485 nm and emission at 530 nm, to determine the background fluorescence of the control sample. After the 3 h incubation, the samples were read for fluorescence as above (T=3 h).
The activity of caspase cascade activation was determined by the ratio of the net RFU value for 2,7,8-triamino-4-(3-bromo-4,5-dimethoxy-phenyl)-3-cyano-4H-chromene or other test compound to that of control samples. The EC50 (nM) was determined by a sigmoidal dose-response calculation (Prism 2.0, GraphPad Software Inc.).

[3] = day 1, 2, 3 (QD × 3), first study (cisplatin day 2)
[4] = day 1, 8, 15 (QW × 3), second study (cisplatin day 2, 9)
[5] = day 1, 8, 15 (QW × 3), third study (doxorubicin)

Q: How did the GI50 (MDAMB435) turn out when COc1cc([C@H]2C(C#N)=C(N)Oc3c2ccc(N)c3N)cc(Br)c1OC [Compound 1R, R(−)-2,7,8-triamino-4-(3-bromo-4,5-dimethoxy-phenyl)-3-cyano-4H-chromene] was run?
A: 9 nM

Q: And the Median survival time ([1]; 20 mg/kg IV, once a day for days 1-3 (QD × 3))?
A: 19 days

Q: And the Median survival time ([1]; 20 mg/kg IV, once a day for days 1-5 (QD × 5))?
A: 46 days

Q: What about the Median survival time ([1]; 20 mg/kg IV, once a week, day 1, 8, 15 (QW × 3)) of the same compound?
A: 27.5 days

Q: What about the Median survival time ([1]; 40 mg/kg IV, once a day for days 1-3 (QD × 3)) of the same compound?
A: 38 days

Q: What about the Median survival time ([1]; 40 mg/kg IV, once a day for days 1-5 (QD × 5)) of the same compound?
A: >100 days

Q: What about the Median survival time ([1]; 40 mg/kg IV, once a week, day 1, 8, 15 (QW × 3)) of the same compound?
A: 41 days

Q: And the Median survival time ([1]; 60 mg/kg IV, once a day for days 1-3 (QD × 3))?
A: 78 days

Q: And the Median survival time ([1]; 60 mg/kg IV, once a week, day 1, 8, 15 (QW × 3))?
A: 37.5 days

Q: And the Median survival [2, 3]?
A: 38.5 days

Q: And the “Number of tumor free mice at day 91” value [2, 3]?
A: 4 of 9

Q: And the Median survival [2, 4]?
A: 35 days

Q: What about the “Number of tumor free mice at day 91” value [2, 4] of the same compound?
A: 1 of 7

Q: And the Median survival [2, 5]?
A: 40 days

Q: What about the “Number of tumor free mice at day 91” value [2, 5] of the same compound?
A: 1 of 8

Q: What about the “Caspase cascade activator and inducer of apoptosis (in words)” value (solid tumor cells) of the same compound?
A: potent caspase cascade activator and inducer of apoptosis
